Converted amounts (≈) assume the structure as drawn.
What was measured:
[1] = target: human histamine 4 receptor (hH4R) (Homo sapiens (Human), UniProt Q9H3N8); experiment: Binding affinity of human histamine 4 receptor (hH4R), [3H] labeled histamine displacement; details: hH4R-overexpressed cell membrane, [3H] histamine
Description: 20 μL of the prepared compound solution was transferred to each well of a 96-well plate, and then 20 μL of 100 μM histamine diluted with analysis buffer solution and 1% DMSO were transferred to each well to calculate non-specific binding and total binding degree. 25 μg of human histamine 4 receptor-overexpressed cell membrane (PerkinElmer) was diluted into 160 μL of analysis buffer solution and that was transferred to each well. [^3H] labeled histamine (PerkinElmer) was diluted into 1 μM concentration, 20 μL was allocated in each well, and then it was kept in a 27° C. incubator for 30 minutes. After the reaction, 200 μL of the mixture was transferred to a glass fiber plate in which 0.5% polyethylene amine was presoaked, and then non-binding [^3H] labeled histamine was removed in vacuum. After 4 times washing with 200 μL of washing buffer solution (50 mM tris-HCl, pH 7.4), the plate was dried in a 37° C. oven for 18 hours. 100 μL of betascint cocktail solution was added to each well, and after 1 hour CPM (count per minute) value of [^3H] labeled histamine was measured by using Wallac beta-counter TriLux.

[2] = target: human histamine 3 receptor (hH3R) (Homo sapiens (Human), UniProt Q9Y5N1); experiment: Binding affinity of human histamine 3 receptor (hH3R), [3H] labeled N-α-methylhistamine displacement; details: hH3R-overexpressed cell membrane, [3H] N-α-methylhistamine
Chain of human histamine 3 receptor (hH3R) (Q9Y5N1 whole entry): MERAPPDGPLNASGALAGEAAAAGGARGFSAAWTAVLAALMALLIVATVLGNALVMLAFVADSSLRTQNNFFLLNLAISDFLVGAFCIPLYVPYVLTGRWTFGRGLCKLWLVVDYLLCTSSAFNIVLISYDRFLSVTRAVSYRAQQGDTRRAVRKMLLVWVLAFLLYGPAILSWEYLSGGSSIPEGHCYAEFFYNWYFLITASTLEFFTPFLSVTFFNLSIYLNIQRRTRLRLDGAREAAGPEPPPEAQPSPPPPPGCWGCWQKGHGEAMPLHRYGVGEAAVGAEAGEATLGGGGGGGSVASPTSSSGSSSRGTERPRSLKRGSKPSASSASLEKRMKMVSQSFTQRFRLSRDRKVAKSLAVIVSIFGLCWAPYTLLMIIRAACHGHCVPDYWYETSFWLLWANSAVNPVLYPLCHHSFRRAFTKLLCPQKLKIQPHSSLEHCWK
How it was run: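 Membranes from cells overexpressing hH3R (15 μg) were incubated with compound and [3H]N-α-methylhistamine (20 μM stock) in 50 mM Tris-HCl pH 7.4, 5 mM MgCl2 for 30 min at 27 °C. Bound radioligand was counted by scintillation after filtration; 200 μM (R)(−)-α-methylhistamine stock defined non-specific binding; IC50 derived.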

[3] = Solubility in artificial gastrointestinal tract solution; assay type: physicochemical; details: thermodynamic from solid; for solubility at 1 h: fassgf or other biorelevant, first solution pH 1.2, 2 mg/mL sample, 37° C. 1 hour; for solubility at 2 h: fassif, second solution pH 6.5, 2 mg/mL sample, 37° C. 2 hours
Description: 2.0 g of sodium chloride was added in 7.0 mL of 37% of hydrochloric acid and water to make the total volume of 1 L. The pH was adjusted to exactly 1.2 with 1N sodium hydroxide or 1N hydrochloric acid. A small amount (20 mL) of this solution was taken and added in 25 μL of triton X-100 to make the total volume of 25 mL.
0.348 g sodium hydroxide, 3.438 g NaH2PO4, 6.186 g sodium chloride and water were added to make the total volume of 1 L. The pH was adjusted to exactly 6.5 with 1N sodium hydroxide or 1N hydrochloric acid. A small amount (20 mL) of this solution was taken and 41.25 mg of sodium taurocholate hydrate and 25 μL of 750 mM lecithin dissolved in ethanol was added to make the total volume of 25 mL.
The heated test sample solutions were filtered to remove undissolved compounds therein. Finally, 100 μL of the completely compound-dissolved solution was sampled and 100 μL of CH3CN was added thereto to make the test sample solution. For each analysis of the test sample solution, the solubility was measured by using liquid chromatography.

[4] = Metabolic stability in mouse microsome; details: mouse microsome 1 mg/mL, 5 μM compound, 1 mM NADPH
[5] = Metabolic stability in human microsome; details: human microsome 1 mg/mL, 5 μM compound, 1 mM NADPH
[6] = artificial gastrointestinal tract solution

Row | SMILES | IC50 [1] [nM] | IC50 [2] [nM] | solubility at 1 h [3, 6] [µg/mL] | solubility at 2 h [3, 6] [µg/mL] | Metabolic stability (CLh. int), Mouse [4] [µL/min/mg] | Metabolic stability (CLh. int), Human [5] [µL/min/mg] | solubility at 1 h [3] [µg/mL] | solubility at 2 h [3] [µg/mL] | IC50 ([1]; hydrochloride) [nM]
1 | C[C@H]1CN(c2nc3ncc(Cl)cc3n3cnnc23)CCN1C [Compound 20, (S)-8-chloro-4-(3,4-dimethylpiperazin-1-yl)pyrido[2,3-e][1,2,4]triazolo[4,3-a]pyrazine] | 380 | > 100000 | 2070 (≈ 6.51 mM) | 1640 (≈ 5.18 mM) | 7570 | 1620 | – | – | –
2 | CNC1CN(C2=Nc3ncc(Br)cc3N3CCN=C23)C1 [Compound 107, 1-(8-bromo-1,2-dihydroimidazo[1,2-a]pyrido[2,3-e]pyrazin-4-yl)-N-methylazetidin-3-amine] | 620 | > 100000 | 1420 (≈ 4.22 mM) | 1570 (≈ 4.68 mM) | 8150 | 5160 | – | – | –
3 | C[C@H]1CN(c2nc3ncc(Cl)cc3n3cnnc23)CCN1 [Compound 19, (S)-8-chloro-4-(3-methylpiperazin-1-yl)pyrido[2,3-e][1,2,4]triazolo[4,3-a]pyrazine] | 760 | > 100000 | 1980 (≈ 6.5 mM) | 1700 (≈ 5.58 mM) | 26160 | 960 | – | – | –
4 | CNC1CN(c2nc3ncc(Br)c(C)c3n3cnnc23)C1 [Compound 65, 1-(8-Bromo-9-methylpyrido[2,3-e][1,2,4]triazolo[4,3-a]pyrazin-4-yl)-N-methylazetidin-3-amine] | 730 | > 100000 | – | – | 6490 | 3210 | – | – | –
5 | CNC1CN(c2nc3ncc(OC(F)F)cc3n3cnnc23)C1 [Compound 59, 1-(8-(Difluoromethoxy)pyrido[2,3-e][1,2,4]triazolo[4,3-a]pyrazin-4-yl)-N-methylazetidin-3-amine] | 890 | > 100000 | – | – | 1230 | 1320 | – | – | –
6 | CNC1CN(c2nc3ncc(Br)cc3n3cnnc23)C1.Cl [Compound 68, 1-(8-Bromopyrido[2,3-e][1,2,4]triazolo[4,3-a]pyrazin-4-yl)-N-methylazetidin-3-amine hydrochloride] | – | > 100000 | 1820 | 1760 | 3930 | 300 | – | – | 130
7 | CNC1CN(c2nc3ncc(Br)cc3n3nnnc23)C1.Cl [Compound 69, 1-(8-Bromopyrido[2,3-e]tetrazolo[1,5-a]pyrazin-4-yl)-N-methylazetidin-3-amine hydrochloride] | 35 | > 100000 | 1810 | 1920 | 14040 | 5690 | – | – | –
8 | CN1C[C@@H]2C[C@H]1CN2c1nc2ncc(Cl)cc2n2cnnc12 [Compound 78, 8-Chloro-4-((1S,4S)-5-methyl-2,5-diazabicyclo[2.2.1]heptan-2-yl)pyrido[2,3-e][1,2,4]triazolo[4,3-a]pyrazine] | 430 | > 100000 | – | – | 1460 | 2360 | – | – | –
9 | CNC1CN(c2nc3ncc(Br)cc3n3ccnc23)C1 [Compound 89, 1-(8-Bromoimidazo[1,2-a]pyrido[2,3-e]pyrazin-4-yl)-N-methylazetidin-3-amine] | 360 | > 100000 | – | – | 10710 | 3190 | – | – | –

Further molecules by falling IC50 [1], results first:

Row | IC50 [1] [nM] | IC50 [2] [nM] | solubility at 1 h [3, 6] [µg/mL] | solubility at 2 h [3, 6] [µg/mL] | Metabolic stability (CLh. int), Mouse [4] [µL/min/mg] | Metabolic stability (CLh. int), Human [5] [µL/min/mg] | solubility at 1 h [3] [µg/mL] | solubility at 2 h [3] [µg/mL] | SMILES | IC50 ([1]; hydrochloride) [nM]
10 | 260 | > 100000 | 1820 (≈ 6.31 mM) | 1580 (≈ 5.46 mM) | 11770 | 2870 | – | – | CNC1CN(c2nc3ncc(Cl)cc3n3ccnc23)C1 [Compound 88, 1-(8-Chloroimidazo[1,2-a]pyrido[2,3-e]pyrazin-4-yl)-N-methylazetidin-3-amine] | –
11 | 240 | > 100000 | 1900 (≈ 6.33 mM) | 1070 (≈ 3.55 mM) | 5230 | 4200 | – | – | CNC1CN(c2nc3ncc([N+](=O)[O-])cc3n3cnnc23)C1 [Compound 111, N-methyl-1-(8-nitropyrido[2,3-e][1,2,4]triazolo[4,3-a]pyrazin-4-yl)azetidin-3-amine] | –
12 | 238 | > 100000 | – | – | 3070 | 2710 | – | – | CN1CCN(c2nc3ncc(C#N)cc3n3cnnc23)CC1 [Compound 13, 4-(4-Methylpiperazin-1-yl)pyrido[2,3-e][1,2,4]triazolo[4,3-a]pyrazin-8-carbonitrile] | –
13 | 220 | > 100000 | – | – | 2050 | 1320 | 1670 (≈ 5.18 mM) | 1460 (≈ 4.53 mM) | CNC1CN(c2nc3ncc(C(F)(F)F)cc3n3cnnc23)C1 [Compound 52, N-Methyl-1-(8-(trifluoromethyl)pyrido[2,3-e][1,2,4]triazolo[4,3-a]pyrazin-4-yl)azetidin-3-amine] | –
14 | 210 | > 100000 | – | – | 12740 | 2800 | – | – | CNC1CN(c2nc3ncc(OC)cc3n3cnnc23)C1 [Compound 58, 1-(8-Methoxypyrido[2,3-e][1,2,4]triazolo[4,3-a]pyrazin-4-yl)-N-methylazetidin-3-amine] | –
15 | 200 | > 100000 | – | – | 680 | 1160 | – | – | C#Cc1cnc2nc(N3CC(NC)C3)c3nncn3c2c1 [Compound 54, 1-(8-Ethynylpyrido[2,3-e][1,2,4]triazolo[4,3-a]pyrazin-4-yl)-N-methylazetidin-3-amine] | –
16 | 190 | > 100000 | 1990 (≈ 7.38 mM) | 1870 (≈ 6.95 mM) | 9080 | 1900 | – | – | CNC1CN(c2nc3ncc(C)cc3n3cnnc23)C1 [Compound 50, N-Methyl-1-(8-methylpyrido[2,3-e][1,2,4]triazolo[4,3-a]pyrazin-4-yl)azetidin-3-amine] | –
17 | 177 | > 100000 | – | – | 17130 | 5880 | – | – | CN1CCN(c2nc3nc(Cl)c(Cl)cc3n3cnnc23)CC1 [Compound 17, 7,8-Dichloro-4-(4-methylpiperazin-1-yl)pyrido[2,3-e][1,2,4]triazolo[4,3-a]pyrazine] | –
18 | 160 | > 100000 | 1870 (≈ 5.62 mM) | 708 (≈ 2.13 mM) | 1780 | 3880 | – | – | CNC1CN(c2nc3ncc(Br)cc3c3ccnn23)C1 [Compound 110, 1-(9-bromopyrazolo[1,5-c]pyrido[3,2-e]pyrimidin-5-yl)-N-methylazetidin-3-amine] | –
19 | 67 | – | 1930 (≈ 5.54 mM) | 679 (≈ 1.95 mM) | 14420 | 3730 | – | – | CN1CCN(c2nc3ncc(Br)cc3n3cnnc23)CC1 [Compound 12, 8-Bromo-4-(4-methylpiperazin-1-yl)pyrido[2,3-e][1,2,4]triazolo[4,3-a]pyrazine] | –

Reference: US9586959B2, “Substituted tricyclic heterocycles as histamine 4 receptor inhibitors” (C&C RESEARCH LABORATORIES, priority 2011, dated 2017)
